Data set [1] relates to HT29 (colon cancer). Nature of the data set: Cell viability IC50 (CellTiter-Glo), HT29. In kind it is cell-based. The following applies: Homo sapiens, HT-29, HT29, 72 hours. The procedure:
(§1) The cancer cell lines were cultured to the logarithmic growth phase according to conventional culture methods, and the cells were inoculated into a 384-well plate at a density of 2,000 cells/well in a volume of 40 μl/well. The concentrations of added compounds were: […], 1.67 μM, 0.56 μM, 0.19 μM, 0.062 μM, 0.021 μM, 0.0069 μM, 0.0023 μM, 0.00076 μM, and 0 μM. After 72 hours, cell viability was detected using the CellTiter-Glo™ Detection Kit.
(ATP-based viability assays read luminescence as a measure of living cells.)

The test system of data set [2] is NCI-H1650 cells. Nature of the data set: Cell viability IC50 (MTT), Gefitinib- and Osimertinib-resistant NCI-H1650 cells. The note with it: Homo sapiens, NCI-H1650, 72 h, read-out: cell viability IC50.
Experimental: (§4) 1% sodium pyruvate was additionally added when culturing NCI-H1975 cells. All the cells were cultured in a constant temperature incubator containing 5% CO2 at 37° C.
(§5) (1) The cells were cultured to the logarithmic growth phase. […] After centrifugation at room temperature, the supernatant was discarded, and the cell precipitate was resuspended with fresh complete medium. After counting, the cells were placed at room temperature for later use.
(§6) (2) The cells were inoculated into a 96-well plate at a density of 4,000 cells/well with a volume of 100 μl/well. The wells at the outermost circle of the plate were not inoculated with cells, and instead, added with sterile water to reduce evaporation of the culture medium.
(§7) (3) After overnight culture of the cells, the medium was discarded, and a fresh medium containing different concentrations of compounds was added at 200 μl/well. The dilution method of the compound was as follows: first the compound with the highest concentration of 10 μM was prepared, and then the compound was diluted for 3 times in sequence. […] At the same time, a blank control group was set up, in which only an equal volume of culture medium was added without adding cells. Six replicate wells were set up for each group. The cells were placed in the incubator for further culture.
(§8) (4) After 72 hours, 20 μl of MTT solution (5 mg/ml) sterilized by filtration through a 0.22 m filter membrane was added to each well, and the cells were cultured in an incubator at 37° C. for another 4 hours.
(§9) (6) IC50 of the compounds for different cells was calculated based on the light absorption value of each group. Specifically, the absorbance value under treatment with different concentrations of compounds was first subtracted from the absorbance value of the blank well, and then the absorbance value of the 0 μM group was taken as 100% to calculate the cell survival rate after treatment with different concentrations of compounds. That is, survival rate=((ODexperimental well−ODblank control)/(ODnegative control−ODblank control))×100%. IC50 values were calculated based on the survival rate and concentration of the compound.
The test system of data set [3] is DMS114 cells. Nature of the data set: Cell viability IC50 (CCK-8), small cell lung cancer cell line DMS114. The following applies: Homo sapiens, DMS-114; DMS114, CCK-8. In kind it is cell-based. Here is the method: (§2) Small cell lung cancer cell lines DMS114, NCI-H1688, NCI-H82, NCI-H146, and NCI-H446 cells were cultured in RPMI-1640 medium containing 10% fetal bovine serum and 1% penicillin-streptomycin. All the cells were cultured in a constant temperature incubator containing 5% CO2 at 37° C.
(§3) Small cell lung cancer is a highly heterogeneous malignant tumor, and its clinical treatment is mainly based on traditional chemotherapy (mainly platinum medicaments and etoposide). In order to study the anti-tumor activity of the compounds of the present disclosure in small cell lung cancer, the CCK-8 method was used to investigate the cell viability IC50 of compound 8 for five small cell lung cancer cell lines.

Data set [4] deals with NCI-H1975 cells. The data set is described as follows: Cell viability IC50 (MTT), Gefitinib-resistant NCI-H1975 cells. The note with it: Homo sapiens, NCI-H1975, 72 h, read-out: cell viability IC50.
Experimental: as §4, §5, §6, §7, §8, §9
For data set [5], the system named is small cell lung cancer cell line H446 cells. Nature of the data set: In vivo antitumor effect in mice bearing small cell lung cancer cell line H446 cells (CDX model).
Experimental: H446 cells in the logarithmic growth phase were suspended in PBS solution, and then inoculated subcutaneously in the right forelimb of nude mice. The cell density was about 2×10^8 cells/mL, and each mouse was inoculated with 0.1 mL of the cell suspension, for a total of 80 mice. When the subcutaneous tumor grew to range from 50 mm^3 to 100 mm^3, 40 tumor-bearing mice were randomly divided into groups and numbered, and drug administration began.
(1) Vehicle blank control group: 5% DMSO+20% PEG 300+75% saline (normal saline);
The cycle repeated twice, and no medication for the final 6 days.
All tumor-bearing mice were killed after 20 days.
In data set [6] the test system is MiaPaca-2 (pancreatic cancer). The data set is described as follows: Cell viability IC50 (CellTiter-Glo), MiaPaca-2. In kind it is cell-based. The note with it: Homo sapiens, MIA PaCa-2, MiaPaca-2, 72 hours. Here is the method: as §1
Data set [7] relates to ASH-3 (thyroid cancer). The data set is described as follows: Cell viability IC50 (CellTiter-Glo), ASH-3. The following applies: ASH-3, 72 hours. Type of data set: cell-based. The procedure: as §1
Data set [8] concerns KYSE-70 (esophageal cancer). The data set is described as follows: Cell viability IC50 (CellTiter-Glo), KYSE-70. The following applies: Homo sapiens, KYSE-70, 72 hours. In kind it is cell-based. Here is the method:
as §1

Data set [9] deals with NCI-H82 cells. The data set is described as follows: Cell viability IC50 (CCK-8), small cell lung cancer cell line H82. The following applies: Homo sapiens, NCI-H82; H82, CCK-8. In kind it is cell-based. The procedure: as §2, §3
For data set [10], the system named is A375 (melanoma). The data set is described as follows: Cell viability IC50 (CellTiter-Glo), A375. Type of data set: cell-based. The note with it: Homo sapiens, A-375, A375, 72 hours. Here is the method: as §1
The subject of data set [11] is PE039 primary cells. The data set is described as follows: Cell viability IC50 (CCK-8), primary cells PE039 from small cell lung cancer pleural effusion. In kind it is cell-based. The note with it: PE039, CCK-8. The procedure: (1) The pleural effusion was poured into a 15 mL or 50 mL of sterilized centrifuge tube for centrifugation. Centrifugation conditions: 800 to 1000 rpm, 5 min.
(2) The precipitate was resuspended and washed for 2 to 3 times with PBS.
(3) The cell precipitate was resuspended with complete culture medium (α-MEM medium containing 10% fetal bovine serum and 2% penicillin-streptomycin), and the flocculent matter in the pleural effusion was removed using a sterilized cell sieve.
(4) The red blood cells in the pleural effusion were removed with lymphocyte separation fluid, and the tumor cells and lymphocyte components were collected. The number of tumor cells was observed under a microscope, and the cells were inoculated.
(5) After 24 hours, the supernatant was discarded, and fresh culture medium was added for further culture.
(6) The cell growth status was observed, and it was determined based on the cell status whether the medium was required to be continuously changed to remove blood cells. When the cells grew to a density of 80% to 90%, the cells were preserved.
(1) Primary cells from lung cancer pleural effusion within 5 generations were cultured to the logarithmic growth phase. […] After centrifugation at room temperature, the supernatant was discarded, and the cell precipitate was resuspended with fresh complete culture medium. After counting, the cells were placed at room temperature for later use. The cells were inoculated into a 384-well plate at a density of 2000 cells/well with a volume of 40 μl/well. The wells at the outermost circle of the plate were not inoculated with cells, and instead, added with sterile water to reduce evaporation of the culture medium.
(2) After overnight culture of the cells, the medium was discarded, and a fresh medium containing different concentrations of compounds was added at 200 μl/well. The dilution method of the compound was as follows: first the compound with the highest concentration of 10 μM was prepared, and then the compound was diluted for 3 times in sequence. […] At the same time, a blank control group was set up, in which only an equal volume of culture medium was added without adding cells. Five replicate wells were set up for each group. The cells were placed in the incubator for further culture.
(3) After 72 hours, 8 μl of CCK-8 solution, which was double-diluted with 10 mM PBS, was added to each well, and the cells were shaken and placed in an incubator at 37° C. for further culture for 2 hours.
(4) The light absorbance value at 450 nm was read using a microplate reader, and the IC50 was calculated according to the absorbance value. The calculation method was the same as above. […]

For data set [12], the system named is AGS (gastric cancer). Nature of the data set: Cell viability IC50 (CellTiter-Glo), AGS. In kind it is cell-based. The following applies: 72 hours. The procedure: as §1
The subject of data set [13] is various cancer cell lines. The data set is described as follows: Cell viability IC50 (CellTiter-Glo), summary over various cancer cell lines. Type of data set: cell-based. Here is the method: as §1
Data set [14] relates to NCI-H446 cells. The data set is described as follows: Cell viability IC50 (CCK-8), small cell lung cancer cell line H446. In kind it is cell-based. The following applies: Homo sapiens, NCI-H446; H446, CCK-8. Here is the method:
as §2, §3

In data set [15] the test system is SW620 (colon cancer). The data set is described as follows: Cell viability IC50 (CellTiter-Glo), SW620. Type of data set: cell-based. The note with it: Homo sapiens, SW-620, SW620, 72 hours. The procedure: as §1

A word on the IC50: it is the concentration at which inhibition is half-maximal. Take `CN1CC2CCC(C1)N2Cc1ccc(Nc2ncc(Cl)c(Nc3ccccc3S(=O)(=O)N(C)C)n2)cc1` [Compound 8, 2-((5-chloro-2-((4-((3-methyl-3,8-diazabicyclo[3.2.1]octan-8-yl)methyl)phenyl)amino)pyrimidin-4-yl)amino)-N,N-dimethylbenzenesulfonamide]: the IC50 in data set [1] is 190 nM; in data set [2] it was 83.6 nM; in [3], 6.03 nM; in data set [4] it was 55.2 nM; in data set [6], 13.2 nM; in data set [7] it was 44 nM. Also, the IC50 is 122 nM in data set [8]; 5.15 nM in data set [9]; 23.3 nM in data set [10]; 51.5 nM in data set [11]; 36.2 nM in [12]; less than 200 nM in data set [13] (colon cancer, liver cancer, cervical cancer, ovarian cancer, and esophageal cancer). Besides, the IC50 in data set [13] (thyroid cancer, breast cancer, bladder cancer, glioma, pancreatic cancer, melanoma, and gastric cancer) is less than 100 nM; in [14], 7.58 nM; in [15] it was 101 nM. Further, the toxicity entry in [5] (H446 CDX nude mice, 15 mg/kg, judged from body weight) is “not significant”. Also, the “inhibitory effect on tumor volume growth compared with blank control (FIG. 1)” value in data set [5] (H446 CDX nude mice, intraperitoneal injection, 20 days) is on record as “significantly inhibited the growth of tumor volume”. Moreover, the animals survived in data set [5] (H446 CDX nude mice, intraperitoneal injection, 20 days, compound 8 and TP-0903 15 mg/kg once a day for 13 days, Cisplatin 2.5 mg/kg + Etoposide 4 mg/kg cycles) is given as 11 out of 12. Further, the “body weight changes of nude mice (FIG. 2)” value in data set [5] (during the drug administration period, recovered rapidly after drug withdrawal) is “slight decrease in body weight”.

The values are drawn from patent US20240360145A1, “PYRIMIDINE-2,4-DIAMINE DERIVATIVES AS WELL AS PREPARATION METHOD THEREFOR AND USE THEREOF” (LISEN THERAPEUTICS, INC., priority 2022, published 2024).
